The numbers were not newly measured in patent US6743947B1, “Electrochemically stable onium salts and electrolytes containing such for electrochemical capacitors” (The United States of America as represented by the …, priority 1999, dated 2004), which cites them from elsewhere.

Each structure is given as a SMILES string. Read-outs that look alike come from different tables or passages of the source.

For data set [1] the following is noted: room temperature.

Regarding `CC[N+](CC)(CC)CC.F[B-](F)(F)F` [Et4NBF4, tetraethylammonium tetrafluoroborate], the conductivity result is on record as “about 50 mS/cm” in data set [1] (in AN, 1.4 M) and 8.8 mS/cm in data set [1] (in PC, 0.65 M). Further, the saturated salt concentration entry (in acetonitrile (AN), room temperatures) is given as “about 1.68 M”. Moreover, the saturated concentration (in propylene carbonate (PC), room temperature) is 0.86 M.
